This passage reports EC50 results from patent publication US20220396569A1 (Carmot Therapeutics, Inc., priority 2021, published 2022).

T1 sequence (P43220 24-463): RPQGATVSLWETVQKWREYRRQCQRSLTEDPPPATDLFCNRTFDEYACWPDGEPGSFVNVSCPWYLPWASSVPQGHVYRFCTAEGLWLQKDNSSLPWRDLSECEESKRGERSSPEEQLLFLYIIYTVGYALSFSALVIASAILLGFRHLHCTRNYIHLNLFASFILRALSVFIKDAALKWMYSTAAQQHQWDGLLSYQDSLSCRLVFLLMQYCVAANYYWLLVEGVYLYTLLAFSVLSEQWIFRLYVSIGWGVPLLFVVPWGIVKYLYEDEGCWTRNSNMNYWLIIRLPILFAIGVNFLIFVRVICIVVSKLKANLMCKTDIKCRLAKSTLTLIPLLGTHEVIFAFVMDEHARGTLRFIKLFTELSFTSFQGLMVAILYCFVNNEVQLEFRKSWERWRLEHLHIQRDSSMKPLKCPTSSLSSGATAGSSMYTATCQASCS

The assay has as its target T1, human GLP-1 receptor (Homo sapiens, UniProt P43220).
T1 construct: expressed in transfected cells
The experiment in a line: GLP-1R cAMP Assay (HitHunter cAMP accumulation). The assay is classed as cell-based. Conditions: cAMP accumulation, CHO cells stably overexpressing human GLP-1 receptor, 30 min treatment; read-out: EC50. An outline of the steps:
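CHO cells stably expressing human GLP-1R, 10,000 cells/well in HBSS with 10 mM HEPES and 625 μM IBMX, were mixed with anti-cAMP antibody reagent. Compound was applied as a 20-point dose response in triplicate for 30 min. After lysis and overnight detection, luminescence was read and dose-response curves analysed.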
A general note: cAMP levels reflect the balance of adenylyl cyclase and phosphodiesterase activity.
A word on the EC50: it is the concentration that produces a half-maximal response. Take `C[C@H]1[C@@H](Oc2ccnc(COc3ccc(Cl)cc3F)n2)CN1Cc1nc2ccc(C(=O)O)cc2n1C[C@@H]1CCO1` [Compound 547, 2-{[(2S,3S)-3-({2-[(4-chloro-2-fluorophenoxy)methyl]pyrimidin-4-yl}oxy)-2-methylazetidin-1-yl]methyl}-1-{[(2S)-oxetan-2-yl]methyl}-1H-1,3-benzodiazole-6-carboxylic acid]: the EC50 is less than 50 nM.
As for `O=C(O)c1ccc2nc(CN3CC(Oc4cnc(COc5ccc(Cl)cc5Cl)o4)C3)n(C[C@@H]3CCO3)c2c1` [Example 213, (S)-2-((3-((2-((2,4-Dichlorophenoxy)methyl)oxazol-5-yl)oxy)azetidin-1-yl)methyl)-1-(oxetan-2-ylmethyl)-1H-benzo[d]imidazole-6-carboxylic acid], the figure is less than 50 nM; as for `O=C(O)c1ccc2nc(CN3CC=C(c4ccnc(COc5ccc(Cl)cc5Cl)c4)C3)n(C[C@@H]3CCO3)c2c1` [Compound 402, 2-[(3-{2-[(2,4-dichlorophenoxy)methyl]pyridin-4-yl}-2,5-dihydro-1H-pyrrol-1-yl)methyl]-1-{[(2S)-oxetan-2-yl]methyl}-1H-1,3-benzodiazole-6-carboxylic acid], less than 50 nM.
For the compound `N#Cc1ccc(OCc2nc(C34CC3CN(Cc3nc5c(F)cc(C(=O)O)cc5n3C[C@@H]3CCO3)C4)ccc2F)c(F)c1` (stereo partly drawn) [Compound 523, 2-[(1-{6-[(4-cyano-2-fluorophenoxy)methyl]-5-fluoropyridin-2-yl}-3-azabicyclo[3.1.0]hexan-3-yl)methyl]-4-fluoro-1-{[(2S)-oxetan-2-yl]methyl}-1H-1,3-benzodiazole-6-carboxylic acid], the concentration for a half-maximal effect (EC50) is less than 50 nM.
As for `O=C(O)c1ccc2nc(CN3CCC(c4ccc(F)c(COc5ccc(Cl)cc5F)n4)C3)n(C[C@@H]3CCO3)c2c1` (stereo partly drawn) [Compound 409, 2-[(3-{6-[(4-chloro-2-fluorophenoxy)methyl]-5-fluoropyridin-2-yl}pyrrolidin-1-yl)methyl]-1-{[(2S)-oxetan-2-yl]methyl}-1H-1,3-benzodiazole-6-carboxylic acid], the figure is less than 50 nM.
As for `N#CCC1(Cn2c(CN3CC=C(c4ccc(F)c(COc5ccc(Cl)cc5F)n4)C3)nc3c(F)cc(C(=O)O)cc32)CC1` [Compound 430, 2-[(3-{6-[(4-chloro-2-fluorophenoxy)methyl]-5-fluoropyridin-2-yl}-2,5-dihydro-1H-pyrrol-1-yl)methyl]-1-{[1-(cyanomethyl)cyclopropyl]methyl}-4-fluoro-1H-1,3-benzodiazole-6-carboxylic acid], the figure is less than 50 nM.
As for `N#Cc1ccc(OCc2cc([C@@H]3CCN(Cc4nc5c(F)cc(C(=O)O)cc5n4C[C@@H]4CCO4)C3)ccc2F)c(F)c1` [Compound 450, 2-{[(3S)-3-{3-[(4-cyano-2-fluorophenoxy)methyl]-4-fluorophenyl}pyrrolidin-1-yl]methyl}-4-fluoro-1-{[(2S)-oxetan-2-yl]methyl}-1H-1,3-benzodiazole-6-carboxylic acid], the figure is less than 50 nM.
On to `O=C(O)c1ccc2nc(CN3CCC(c4ccc(F)c(COc5ccc(Cl)cc5Cl)c4)C3)n(C[C@@H]3CCO3)c2c1` (stereo partly drawn) [Compound 389, 2-[(3-{3-[(2,4-dichlorophenoxy)methyl]-4-fluorophenyl}pyrrolidin-1-yl)methyl]-1-{[(2S)-oxetan-2-yl]methyl}-1H-1,3-benzodiazole-6-carboxylic acid], for which the half-maximal effective concentration (EC50) was less than 50 nM.
As for `N#CCC1(Cn2c(CN3CC[C@@H](c4ccnc(COc5ccc(Cl)cc5F)c4)C3)nc3ccc(C(=O)O)cc32)CC1` [Compound 431, 2-{[(3S)-3-{2-[(4-chloro-2-fluorophenoxy)methyl]pyridin-4-yl}pyrrolidin-1-yl]methyl}-1-{[1-(cyanomethyl)cyclopropyl]methyl}-1H-1,3-benzodiazole-6-carboxylic acid], the figure is less than 50 nM; as for `O=C(O)c1ccc2nc(CN3CCC(c4cc(COc5ccc(Cl)cc5F)ccc4F)C3)n(C[C@@H]3CCO3)c2c1` (stereo partly drawn) [Compound 419, 2-[(3-{5-[(4-chloro-2-fluorophenoxy)methyl]-2-fluorophenyl}pyrrolidin-1-yl)methyl]-1-{[(2S)-oxetan-2-yl]methyl}-1H-1,3-benzodiazole-6-carboxylic acid], less than 50 nM.
Regarding `O=C(O)c1cc(F)c2nc(Cc3ccc(Oc4ccnc(COc5ccc(Cl)cc5F)c4)cc3F)n(C[C@@H]3CCO3)c2c1` [Example 459, (S)-2-(4-((2-((4-Chloro-2-fluorophenoxy)methyl)pyridin-4-yl)oxy)-2-fluorobenzyl)-4-fluoro-1-(oxetan-2-ylmethyl)-1H-benzo[d]imidazole-6-carboxylic acid], the EC50 was less than 50 nM.
